This is an account of results in patent US9592221B2, “Antibacterial agents: aryl myxopyronin derivatives” (priority 2012, dated 2017).

Some results are limits rather than exact numbers.

Assay [1] relates to Staphylococcus aureus ATCC 12600. Description: MIC, spiral gradient endpoint assay, S. aureus ATCC 12600. Format: cell-based. To be noted: ATCC12600; Staphylococcus aureus ATCC 12600.
Assay [2] has as its system Escherichia coli D21f2tolC. Put plainly: MIC, spiral gradient endpoint assay, E. coli D21f2tolC. Type of assay: cell-based. To be noted: Escherichia coli, D21F2TOLC, read-out: MIC E. coli D21f2toIC.
The target of assay [3] is M. tuberculosis RNA polymerase core enzyme, M. tuberculosis σ^A (Mycobacterium tuberculosis, UniProt P9WGY7+P9WGY9). Put plainly: Fluorescence-detected RNA polymerase assay, M. tuberculosis RNA polymerase. Type of assay: biochemical. To be noted: read-out: IC50 M. tuberculosis RNAP.
Assay [4] relates to rifampin-resistant Staphylococcus aureus (RRSA) strain ATCC 12600-Rif (H526N). Put plainly: MIC, spiral gradient endpoint assay, RRSA 12600-Rif. Type of assay: cell-based. To be noted: Staphylococcus aureus, ATCC12600; read-out: MIC S. aureus RRSA 12600-Rif.
Assay [5] has as its system Mycobacterium tuberculosis H37Rv. Description: MIC, microplate Alamar Blue assay, M. tuberculosis. Type of assay: cell-based.
Assay [6] deals with methicillin-resistant Staphylococcus aureus (MRSA) strain BAA-1707 (USA-400; MW2). Put plainly: MIC, spiral gradient endpoint assay, MRSA BAA-1707. Type of assay: cell-based. To be noted: Staphylococcus aureus; read-out: MIC S. aureus MRSA BAA-1707.
For assay [7], the system named is methicillin-resistant Staphylococcus aureus (MRSA) strain BAA-1717 (USA-300). Description: MIC, spiral gradient endpoint assay, MRSA BAA-1717. Type of assay: cell-based. To be noted: Staphylococcus aureus; read-out: MIC S. aureus MRSA BAA-1717.
Assay [8] deals with E. coli RNA polymerase σ^70 holoenzyme (Escherichia coli, UniProt P0A8T7+P0A8V2). Put plainly: Fluorescence-detected RNA polymerase assay, E. coli RNA polymerase. The settings on record: read-out: IC50 E. coli RNAP. Type of assay: biochemical.
Assay [9] relates to Acinetobacter baumannii ATCC 19606. Description: MIC, spiral gradient endpoint assay, A. baumannii. Type of assay: cell-based. To be noted: ATCC19606; Acinetobacter baumannii ATCC 19606.
The target of assay [10] is S. aureus RNA polymerase core enzyme, S. aureus σ^A (Staphylococcus aureus, UniProt P47768+Q2G0N5). Put plainly: Fluorescence-detected RNA polymerase assay, S. aureus RNA polymerase. Format: biochemical. To be noted: read-out: IC50 S. aureus RNAP.
The subject of a further assay is Brucella melitensis 16M. Put plainly: microbe, parasite or virus in culture. Format: cell-based. The settings on record: Brucella melitensis, 16M, read-out: MIC B. melitensis 16M.
The subject of assay [11] is Francisella tularensis SCHU4. Put plainly: microbe, parasite or virus in culture. Format: cell-based. The settings on record: Francisella tularensis, SCHU4, read-out: MIC F. tularensis SCHU4.
Assay [12] relates to Burkholderia pseudomallei Human/Blood/OH/US/1994. Description: microbe, parasite or virus in culture. Format: cell-based. To be noted: Burkholderia pseudomallei, read-out: MIC B. pseudomallei Human/Blood/OH.
The test system of assay [13] is Bacillus anthracis Vollum 1b. Description: microbe, parasite or virus in culture. Type of assay: cell-based. The settings on record: Bacillus anthracis, VOLLUM1B, read-out: MIC B. anthracis Vollum-1b.
The next assay deals with Burkholderia mallei CHN7. Put plainly: microbe, parasite or virus in culture. Type of assay: cell-based. The settings on record: Burkholderia mallei, CHN7, read-out: MIC B. mallei CHN7.
The test system of assay [14] is methicillin-resistant Staphylococcus aureus (MRSA) strain BAA-1707 (USA-400, MW2). Put plainly: Antibacterial efficacy in mouse model of Staphylococcus aureus systemic infection (peritonitis model). Format: in vivo, Swiss Webster mice. To be noted: mice.
Assay [15] relates to vancomycin-intermediate Staphylococcus aureus (VISA) strain NRS 1. Put plainly: MIC, spiral gradient endpoint assay, VISA NRS 1. Type of assay: cell-based. To be noted: Staphylococcus aureus; read-out: MIC S. aureus VISA NRS1.
The subject of assay [16] is linezolid-resistant Staphylococcus aureus (LRSA) strain NRS 120. Description: MIC, spiral gradient endpoint assay, LRSA NRS 120. Format: cell-based. The settings on record: Staphylococcus aureus, NRS120; read-out: MIC S. aureus LRSA NRS120.
Where [17] appears, read: intravenous administration 0 h post-infection.

Chain of M. tuberculosis RNA polymerase core enzyme, M. tuberculosis σ^A (P9WGI1 whole entry): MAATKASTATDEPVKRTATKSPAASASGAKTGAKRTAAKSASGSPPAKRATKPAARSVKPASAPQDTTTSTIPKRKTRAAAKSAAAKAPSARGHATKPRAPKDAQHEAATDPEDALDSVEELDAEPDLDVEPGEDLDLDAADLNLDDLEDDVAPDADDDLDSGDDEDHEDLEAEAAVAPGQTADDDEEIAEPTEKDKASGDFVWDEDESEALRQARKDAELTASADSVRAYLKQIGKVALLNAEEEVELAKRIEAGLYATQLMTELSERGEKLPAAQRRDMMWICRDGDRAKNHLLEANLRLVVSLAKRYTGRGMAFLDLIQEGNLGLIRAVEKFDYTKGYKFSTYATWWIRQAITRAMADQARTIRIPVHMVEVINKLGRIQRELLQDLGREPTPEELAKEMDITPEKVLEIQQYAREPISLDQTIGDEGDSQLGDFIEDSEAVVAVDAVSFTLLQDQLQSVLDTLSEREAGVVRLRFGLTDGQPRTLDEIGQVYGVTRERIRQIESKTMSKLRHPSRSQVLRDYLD
Chain of M. tuberculosis RNA polymerase core enzyme, M. tuberculosis σ^A (P9WGY5 whole entry, further chain): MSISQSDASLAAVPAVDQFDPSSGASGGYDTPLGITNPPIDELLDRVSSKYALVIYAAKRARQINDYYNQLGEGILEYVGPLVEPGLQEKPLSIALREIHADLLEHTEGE
Chain of M. tuberculosis RNA polymerase core enzyme, M. tuberculosis σ^A (P9WGY7 whole entry): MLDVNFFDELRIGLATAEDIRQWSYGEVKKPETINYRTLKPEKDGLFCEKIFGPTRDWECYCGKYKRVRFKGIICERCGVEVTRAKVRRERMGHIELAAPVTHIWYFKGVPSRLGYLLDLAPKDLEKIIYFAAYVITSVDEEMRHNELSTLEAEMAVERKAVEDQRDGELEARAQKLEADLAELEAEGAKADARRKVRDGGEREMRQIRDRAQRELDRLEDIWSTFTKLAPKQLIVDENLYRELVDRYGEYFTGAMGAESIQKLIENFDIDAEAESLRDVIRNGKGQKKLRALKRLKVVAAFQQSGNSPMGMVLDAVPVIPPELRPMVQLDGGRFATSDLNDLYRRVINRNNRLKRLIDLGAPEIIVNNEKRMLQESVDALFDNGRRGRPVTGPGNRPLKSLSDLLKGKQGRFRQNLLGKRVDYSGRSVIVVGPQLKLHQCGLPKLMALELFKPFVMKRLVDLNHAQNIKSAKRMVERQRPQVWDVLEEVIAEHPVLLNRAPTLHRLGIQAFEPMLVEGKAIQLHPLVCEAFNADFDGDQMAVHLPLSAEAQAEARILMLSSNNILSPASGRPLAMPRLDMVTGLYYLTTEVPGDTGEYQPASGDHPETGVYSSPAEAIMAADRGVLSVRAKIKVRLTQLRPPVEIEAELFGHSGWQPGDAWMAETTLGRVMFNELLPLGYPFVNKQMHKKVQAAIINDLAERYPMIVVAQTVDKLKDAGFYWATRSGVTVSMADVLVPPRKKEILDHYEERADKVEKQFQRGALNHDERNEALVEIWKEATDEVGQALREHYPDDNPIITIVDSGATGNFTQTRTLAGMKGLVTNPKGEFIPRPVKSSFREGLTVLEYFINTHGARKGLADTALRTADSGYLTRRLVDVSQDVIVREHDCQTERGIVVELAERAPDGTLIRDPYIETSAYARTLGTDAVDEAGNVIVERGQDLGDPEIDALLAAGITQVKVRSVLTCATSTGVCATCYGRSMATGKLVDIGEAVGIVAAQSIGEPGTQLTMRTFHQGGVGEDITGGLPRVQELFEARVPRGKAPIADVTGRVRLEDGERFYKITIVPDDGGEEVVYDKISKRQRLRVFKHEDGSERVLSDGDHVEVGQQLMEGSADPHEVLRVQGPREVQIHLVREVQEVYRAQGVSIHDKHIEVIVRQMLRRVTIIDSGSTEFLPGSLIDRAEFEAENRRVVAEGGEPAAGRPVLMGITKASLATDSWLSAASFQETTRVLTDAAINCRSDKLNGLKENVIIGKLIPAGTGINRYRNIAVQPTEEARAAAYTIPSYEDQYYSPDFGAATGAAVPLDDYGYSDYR
Chain of M. tuberculosis RNA polymerase core enzyme, M. tuberculosis σ^A (P9WGY9 whole entry): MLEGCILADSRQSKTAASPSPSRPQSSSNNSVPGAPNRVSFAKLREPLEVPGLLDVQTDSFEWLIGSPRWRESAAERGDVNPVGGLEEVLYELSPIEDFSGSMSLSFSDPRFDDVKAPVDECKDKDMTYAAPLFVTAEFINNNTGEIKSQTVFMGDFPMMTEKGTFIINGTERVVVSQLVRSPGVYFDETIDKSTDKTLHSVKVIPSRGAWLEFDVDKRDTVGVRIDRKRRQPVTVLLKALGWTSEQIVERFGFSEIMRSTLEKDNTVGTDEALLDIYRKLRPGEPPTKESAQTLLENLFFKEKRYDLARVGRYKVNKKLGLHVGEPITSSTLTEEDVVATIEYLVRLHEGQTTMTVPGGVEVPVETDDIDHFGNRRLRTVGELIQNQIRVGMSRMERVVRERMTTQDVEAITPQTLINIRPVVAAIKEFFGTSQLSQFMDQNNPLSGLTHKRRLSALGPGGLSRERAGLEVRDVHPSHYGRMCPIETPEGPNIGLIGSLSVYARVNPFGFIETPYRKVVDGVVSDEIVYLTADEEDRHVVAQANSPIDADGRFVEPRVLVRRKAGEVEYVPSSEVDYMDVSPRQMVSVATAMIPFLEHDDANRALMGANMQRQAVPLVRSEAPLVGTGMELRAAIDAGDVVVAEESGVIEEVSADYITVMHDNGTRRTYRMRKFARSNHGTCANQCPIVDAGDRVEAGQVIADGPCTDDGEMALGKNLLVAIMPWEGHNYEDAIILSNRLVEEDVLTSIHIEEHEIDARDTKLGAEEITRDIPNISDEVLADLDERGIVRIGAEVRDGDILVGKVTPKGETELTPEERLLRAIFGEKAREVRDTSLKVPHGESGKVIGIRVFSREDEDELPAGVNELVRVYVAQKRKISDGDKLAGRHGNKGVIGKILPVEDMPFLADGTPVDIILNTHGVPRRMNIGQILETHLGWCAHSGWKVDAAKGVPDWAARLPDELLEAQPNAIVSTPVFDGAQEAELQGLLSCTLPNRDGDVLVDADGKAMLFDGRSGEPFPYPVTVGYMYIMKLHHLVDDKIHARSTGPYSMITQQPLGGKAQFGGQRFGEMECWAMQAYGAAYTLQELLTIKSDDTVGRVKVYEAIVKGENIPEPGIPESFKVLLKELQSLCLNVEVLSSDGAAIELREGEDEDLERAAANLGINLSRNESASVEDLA
Chain of M. tuberculosis RNA polymerase core enzyme, M. tuberculosis σ^A (P9WGZ1 whole entry, further chain): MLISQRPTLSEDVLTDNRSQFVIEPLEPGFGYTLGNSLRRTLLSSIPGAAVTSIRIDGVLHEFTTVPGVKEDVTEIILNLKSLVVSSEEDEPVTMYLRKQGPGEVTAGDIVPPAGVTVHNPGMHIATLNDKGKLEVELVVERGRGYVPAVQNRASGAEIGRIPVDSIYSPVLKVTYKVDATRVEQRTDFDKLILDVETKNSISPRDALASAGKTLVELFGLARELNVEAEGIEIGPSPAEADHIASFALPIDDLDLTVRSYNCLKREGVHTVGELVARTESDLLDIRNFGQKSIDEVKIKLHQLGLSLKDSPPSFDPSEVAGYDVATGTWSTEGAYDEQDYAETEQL

As for `COC(=O)N/C=C/CCCc1cc(O)c(C(=O)C(C)=Cc2ccc(CCCC(F)(F)F)s2)c(=O)o1` (mixture of isomers) [APY90, methyl ((1E)-5-(4-hydroxy-3-(2-methyl-3-(5-(4,4,4-trifluorobutyl)thiophen-2-yl)acryloyl)-2-oxo-2H-pyran-6-yl)pent-1-en-1-yl)carbamate], the MIC in assay [1] was found to be 0.9 µg/mL; in assay [2], 0.07 µg/mL; in [4], 2 µg/mL; in [5], 10 µg/mL; in [6], 2 µg/mL; in [7] it was 2 µg/mL. This molecule registered an MIC in assay [9] of 10 µg/mL. Moreover, the results for the IC50 in assay [3], in [8] and in assay [10] were 300 nM, 30 nM and 800 nM, respectively.

For `CCOCc1ccc(C=C(C)C(=O)c2c(O)cc(C(C)CC/C=C/NC(=O)OC)oc2=O)s1` (mixture of isomers) [APY108, methyl ((1E)-5-(3-(3-(5-(ethoxymethyl)thiophen-2-yl)-2-methylacryloyl)-4-hydroxy-2-oxo-2H-pyran-6-yl)hex-1-en-1-yl)carbamate], the MIC in [1] is 10 µg/mL; in assay [2], 0.4 µg/mL; in [4], 20 µg/mL; in assay [5], 30 µg/mL; in [6] it was 20 µg/mL; in assay [7], 20 µg/mL. The molecule also yielded an MIC in assay [9] of more than 40 µg/mL. Also, the values for the IC50 in [3] and in assay [8] were 700 nM and 300 nM, respectively.

With `COC(=O)N/C=C/CCC(C)c1cc(O)c(C(=O)C(C)=Cc2ccc(OC(C)C)s2)c(=O)o1` (mixture of isomers) [APY107, methyl ((1E)-5-(4-hydroxy-3-(3-(5-isopropoxythiophen-2-yl)-2-methylacryloyl)-2-oxo-2H-pyran-6-yl)hex-1-en-1-yl)carbamate], the MIC is 2 µg/mL in [1]; 0.1 µg/mL in [2]; 2 µg/mL in assay [4]; 10 µg/mL in assay [5]; 2 µg/mL in assay [6]; 2 µg/mL in [7]. Moreover, the MIC in [9] was more than 40 µg/mL. Moreover, the IC50 amounted to 400 nM in [3] and 20 nM in [8].

Turning to `COC(=O)N/C=C/CCC(C)c1cc(O)c(C(=O)C(C)=Cc2ccc(CCC3CC3)s2)c(=O)o1` (mixture of isomers) [APY95, methyl ((1E)-5-(3-(3-(5-(2-cyclopropylethyl)thiophen-2-yl)-2-methylacryloyl)-4-hydroxy-2-oxo-2H-pyran-6-yl)hex-1-en-1-yl)carbamate], the MIC in [1] was found to be 0.8 µg/mL; in assay [2], 0.1 µg/mL; in assay [4], 0.5 µg/mL; in assay [5], 10 µg/mL; in assay [6] it was 0.3 µg/mL; in [7], 0.4 µg/mL. In assay [9], this molecule had an MIC of 10 µg/mL. Besides, the IC50 in [3] amounted to 50 nM; in [8], 5 nM.

On to `COC(=O)N/C=C/CCC(C)c1cc(O)c(C(=O)C(C)=Cc2ccc(CC(C)C)s2)c(=O)o1` (mixture of isomers) [APY60, methyl (E)-5-(4-hydroxy-5-((E/Z)-3-(5-isobutylthiophen-2-yl)-2-methylacryloyl)-6-oxo-6H-pyran-2-yl)hex-1-enylcarbamate], for which the MIC with Brucella melitensis 16M came to 6 µg/mL; in assay [1], 0.4 µg/mL; in [2], 0.2 µg/mL; in assay [4], 0.7 µg/mL; in assay [5], 10 µg/mL; in [11], 10 µg/mL. Also, the MIC in [12] came out at 30 µg/mL; in assay [6] it was 0.4 µg/mL; in [7], 0.5 µg/mL; in assay [13], 3 µg/mL; in the assay with Burkholderia mallei CHN7, 30 µg/mL; in [9], 9 µg/mL. Besides, the IC50 in assay [8] is 10 nM. The PD50 in assay [14] (setting [17]) was 20 mg/kg.

On to `COC(=O)N/C=C/CCC(C)c1cc(O)c(C(=O)C(C)=Cc2ccc(OCC(F)(F)F)s2)c(=O)o1` (mixture of isomers) [APY116, methyl ((1E)-5-(4-hydroxy-3-(2-methyl-3-(5-(2,2,2-trifluoroethoxy)thiophen-2-yl)acryloyl)-2-oxo-2H-pyran-6-yl)hex-1-en-1-yl)carbamate], for which the MIC in [1] worked out at 1 µg/mL; in [2], 0.2 µg/mL; in [15], 0.7 µg/mL; in assay [4], 2 µg/mL; in assay [5], 6 µg/mL; in assay [16] it was 0.8 µg/mL. Besides, the MIC in [6] was 2 µg/mL; in assay [7], 2 µg/mL; in [9] it was more than 40 µg/mL. The IC50 in assay [8] came to 30 nM. Further, the PD50 in [14] (setting [17]) is 20 mg/kg; in assay [14] (oral administration 1 h pre-infection), 50 mg/kg.

As for `COC(=O)N/C=C/CCC(C)c1cc(O)c(C(=O)C(C)=Cc2ccc(CCCC(F)(F)F)s2)c(=O)o1` (mixture of isomers) [APY81, methyl ((1E)-5-(4-hydroxy-3-(2-methyl-3-(5-(4,4,4-trifluorobutyl)thiophen-2-yl)acryloyl)-2-oxo-2H-pyran-6-yl)hex-1-en-1-yl)carbamate], the MIC turned out to be 2 µg/mL with Brucella melitensis 16M; 0.4 µg/mL in [1]; 0.08 µg/mL in [2]; 0.8 µg/mL in [4]; 10 µg/mL in assay [5]; 30 µg/mL in [11]. In addition, the MIC was 10 µg/mL in assay [12]; 0.5 µg/mL in assay [6]; 0.9 µg/mL in assay [7]; 2 µg/mL in assay [13]; 10 µg/mL with Burkholderia mallei CHN7; 20 µg/mL in [9]. Also, the half-inhibitory concentration (IC50) was determined as 50 nM in [3], 10 nM in assay [8] and 30 nM in [10].

In the case of `COC(=O)N/C=C/CCCc1cc(O)c(C(=O)C(C)=Cc2ccc(CCC(C)C)s2)c(=O)o1` (mixture of isomers) [APY91, methyl ((1E)-5-(4-hydroxy-3-(3-(5-isopentylthiophen-2-yl)-2-methylacryloyl)-2-oxo-2H-pyran-6-yl)pent-1-en-1-yl)carbamate], the MIC turned out to be 0.7 µg/mL in [1]; 0.08 µg/mL in [2]; 2 µg/mL in assay [4]; 50 µg/mL in assay [5]; 2 µg/mL in assay [6]; 2 µg/mL in [7]. For the same molecule, the MIC in assay [9] came out at 9 µg/mL. Also, the IC50 in [3] stood at 400 nM; in [8], 20 nM; in assay [10], 600 nM.

Turning to `CCCOCc1ccc(C=C(C)C(=O)c2c(O)cc(C(C)CC/C=C/NC(=O)OC)oc2=O)s1` (mixture of isomers) [APY109, methyl ((1E)-5-(4-hydroxy-3-(2-methyl-3-(5-(propoxymethyl)thiophen-2-yl)acryloyl)-2-oxo-2H-pyran-6-yl)hex-1-en-1-yl)carbamate], the MIC is 3 µg/mL in assay [1]; 0.2 µg/mL in assay [2]; 7 µg/mL in assay [4]; 30 µg/mL in [5]; 7 µg/mL in assay [6]; 7 µg/mL in [7]. Besides, in [9], the MIC is more than 40 µg/mL. Besides, the IC50 is 800 nM in assay [3] and 80 nM in assay [8].

As for `COC(=O)N/C=C/CCC(C)c1cc(O)c(C(=O)C(C)=Cc2ccc(CCC(F)(F)F)s2)c(=O)o1` (mixture of isomers) [APY61, methyl (E)-5-(5-((E/Z)-3-(5-(3,3,3-trifluoropropyl)thiophen-2-yl)-2-methylacryloyl)-4-hydroxy-6-oxo-6H-pyran-2-yl)hex-1-enylcarbamate], the MIC with Brucella melitensis 16M is more than 50 µg/mL; in assay [1], 0.7 µg/mL; in assay [2] it was 0.2 µg/mL; in assay [15], 0.4 µg/mL; in assay [4], 1 µg/mL; in assay [5], 10 µg/mL. Also, the MIC in assay [16] came out at 0.4 µg/mL; in assay [11] it was 30 µg/mL; in assay [12], 30 µg/mL; in [6], 0.9 µg/mL; in [7], 0.9 µg/mL; in [13], 6 µg/mL. Further, the MIC with Burkholderia mallei CHN7 was 30 µg/mL; in assay [9], 10 µg/mL. For the same molecule, the IC50 in assay [8] was determined as 20 nM. The same molecule showed a PD50 in assay [14] (setting [17]) of 20 mg/kg.
